{"source": "patent US12268676B2", "about": "“Antiviral applications of picolinic acid and its derivatives” (INDIAN INSTITUTE OF SCIENCE, priority 2021, dated 2025)", "key": {"[1]": {"system": "PR8 WT virus (strain A/Puerto Rico/8/1934 H1N1)", "assay_type": "cell-based, Influenza A virus"}, "IAV PR8 WT strain": {"system": "IAV PR8 WT strain", "assay_type": "in vivo, BALB/c mice"}, "Dengue virus (DENV Luc)": {"system": "Dengue virus (DENV Luc)", "experiment": "microbe, parasite or virus in culture", "assay_type": "cell-based", "conditions": "A549, 48 h, read-out: inhibition (luciferase, normalized with untreated control)"}, "[2]": {"system": "wild type Zika virus (ZIKV) Cambodia strain", "experiment": "ZIKV infection, western blot of flavivirus envelope protein", "assay_type": "cell-based", "conditions": "2 mM PA, 0.1 MOI, 48 hr post infection (FIG. 7L)"}, "SARS-CoV-2": {"system": "SARS-CoV-2", "experiment": "SARS CoV-2 infection studies in the hamster model", "assay_type": "in vivo, Syrian golden hamsters", "conditions": "for viral RNA load mitigated by: 20 mg/kg PA therapeutic treatment"}, "PR8 WT virus particles": {"system": "PR8 WT virus particles", "design": "species or system Influenza A virus"}, "Coxsackie virus B3": {"system": "Coxsackie virus B3", "experiment": "Coxsackie virus B3 infection of HeLa cells, western blot for VP1", "assay_type": "cell-based", "procedure": "The effects of PA against non-enveloped viruses were tested to see if PA would be effective against non-enveloped viruses as well. To this end, HeLa cells were either pre-treated for 3 hr with 2 mM PA, infected with 10 MOI Coxsackie virus B3 in presence of PA and collected 3 hr later (−3 hr); or treated during infection (T0); or virus and PA were incubated together for 1 hr and used for infection (1 hr virus+PA).\nCoxsackie virus B3 infection: To study early effects of PA, HeLa cells were pre-treated for 3 hr, infected with 10 MOI CVB3, and collected at 3 hr post infection. Alternatively, cells were infected and treated simultaneously (T0) and collected after 3 hr. Also, a mixture of virus and drug incubated for 1 hr (1 hr PA+Virus) was used for infection to test the effects of PA on virus particles. No additional drug was added here post infection. Expression levels of VP1 protein was then detected by western blot analysis."}, "CVB3": {"system": "CVB3", "experiment": "CVB3 multi-dose infection, plaque assay of supernatants", "assay_type": "cell-based, Coxsackie virus B3", "conditions": "Vero cells, increasing concentrations of PA, 0.1 MOI, 48 hr p.i.", "from_the_text": "Further, Vero cells were pre-treated with increasing concentrations of PA as indicated and infected with 0.1 MOI CVB3 in the presence of drugs. 48 hr p.i, cell culture supernatants were used to quantify infectious virus by plaque assay."}, "Rota virus RRV strain": {"system": "Rota virus RRV strain", "experiment": "Rotavirus RRV infection of HEK cells, IFA for VP6", "assay_type": "cell-based", "conditions": "HEK cells pre-treated with 2 mM PA, 12 hr", "procedure": "Percentage positive cells was quantified using ImageJ/Fiji.\nRotavirus RRV infection: A working concentration of Rota virus was prepared by diluting the virus stock 2-fold with complete DMEM containing a final concentration of 2 μg/mL TPCK trypsin. The mixture was incubated at 37° C. for 30 min and further diluted 2-fold in DMEM without serum. This mixture was then used to infect HEK cells that were pre-treated for 3 hr with 2 mM PA. A volume of 100 μL per well, in a 24 well plate was used for 1 hr adsorption, after which the wells were topped up with 400 μL serum free media containing PA. After 12 hr, cells were fixed with 4% formalin and immunolabeled with primary mouse anti VP6, and anti-mouse secondary Alexa Fluor 488 antibodies to detect virus infected cells by IFA."}, "AAV6-GFP particles": {"system": "AAV6-GFP particles", "experiment": "AAV6-GFP infection of HEK cells, flow cytometry", "assay_type": "cell-based, Adeno Associated Virus-6", "conditions": "2 mM PA, all virus volumes tested, 48 hr p.i."}, "[3]": {"system": "Adenovirus 5 expressing eGFP", "experiment": "Adenovirus 5 eGFP infection of HEK cells, flow cytometry", "assay_type": "cell-based, Adenovirus Serotype 5", "conditions": "2 mM PA, 10 MOI, 24 hr"}, "M. smegmatis cells": {"system": "M. smegmatis cells", "experiment": "Bacterial toxicity assay, OD600", "assay_type": "cell-based, Mycobacterium smegmatis", "conditions": "up to 24 hr, least concentration tested", "procedure": "(§1) Since most of the naked viruses tested were not inhibited by PA, whether PA would be effective against TM4 mycobacteriophages. M. smegmatis cells in a 48 well plate were treated with increasing concentrations of PA as indicated and OD600 measurements were taken periodically up to 24 hr. […] For the antiviral assay, 1 mM PA was either added at the start of experiment or 3 hr prior to infection. In either case, there was no protection from TM4 mycobacteriophage induced cell death (FIG. 12, panel G).\nBacterial toxicity assay: PA stock solution of 1M concentration was prepared in sterile deionized water and diluted to obtain different concentrations (1 mM, 5 mM, 10 Mm, 20 mM, and 40 mM), in a 48-well plate. A total of 2×10^5 cells of M. smegmatis were added to each of the wells. The 48-well plate was placed in a rotary shaker incubator at 37° C. for 24 h. Readings were taken periodically using a Tecan Spark multi-mode plate reader at 600 nm."}, "TM4 mycobacteriophage": {"system": "TM4 mycobacteriophage", "experiment": "Effect of drug on TM4 mycobacteriophage", "assay_type": "cell-based", "conditions": "10 MOI", "procedure": "as §1\nEffect of drug on TM4 mycobacteriophage: To study the effect of the drug on TM4 phage growth and activity, 7H9 broth supplemented with ADC and CaCl2 was prepared and inoculated with 100 μL of log-phase secondary bacterial culture (OD 1-2) per 5 mL of the media. 1 mM of the drug was added to culture tubes at the appropriate time (either at the start of the experiment or 3 hr before adding the phage in the mid-log phase). The cultures were then incubated at 37° C. with rotary shaking at 180 pm. For phage-treated samples, a 10 MOI TM4 mycobacteriophage was added at a specified interval of the mid-log phase. […] Readings were taken using a spectrophotometer (Jenway 7205 UV/Visible Spectrophotometer) at 600 nm against a media blank."}}, "note": "Where “and” joins values, the source holds several entries; their conditions need not be identical. Equal entries are not always repeated. Where two headings read alike, the source gives them in different places."}
{"molecule": "O=C(O)c1ccccn1", "note": "[PA, pyridine-2-carboxylic acid]", "values": [{"measurement": "decrease in NP positive cells", "setting": "[1]", "value": "no decrease"}, {"measurement": "decrease in number of NP positive cells compared to virus control", "setting": "[1]", "value": "75% and 40%"}, {"measurement": "expression levels of virus NP by western blot, virus control vs PA treated", "setting": "[1]", "value": "no difference"}, {"measurement": "decrease in virus titre from lung tissue (plaque assay) compared to untreated", "setting": "IAV PR8 WT strain; 20 mg PA, 72 hr post infection", "value": "Over 10 fold"}, {"measurement": "body weight loss after IAV infection", "setting": "IAV PR8 WT strain; animals infected in the presence of 100 mg PA", "value": 30, "unit": "%"}, {"measurement": "body weight loss after IAV infection", "setting": "IAV PR8 WT strain; mouse, in vivo", "value": "minimal loss in body weight"}, {"measurement": "decrease in survival rate", "setting": "IAV PR8 WT strain; mouse, in vivo", "value": "significantly reduced"}, {"measurement": "inhibition at 2000 µM", "setting": "Dengue virus (DENV Luc)", "value": "> 90", "unit": "%"}, {"measurement": "flavivirus envelope protein by western blot", "setting": "[2]", "value": "inhibition"}, {"measurement": "reduction in lung viral load", "setting": "SARS-CoV-2; 20 mg/kg PA prophylactically by IP injection", "value": "~2.5", "unit": "fold"}, {"measurement": "decrease in lung viral load", "setting": "SARS-CoV-2; 20 mg/kg PA prophylactically, delivered orally", "value": 1, "unit": "log"}, {"measurement": "viral RNA load mitigated by", "setting": "SARS-CoV-2; IP route", "value": "~1", "unit": "log"}, {"measurement": "viral RNA load mitigated by", "setting": "SARS-CoV-2; oral route", "value": "~1", "unit": "log"}, {"measurement": "body weight and lung weight compared to mock treated animals", "setting": "SARS-CoV-2; 20 mg/kg PA, prophylactic and therapeutic groups", "value": "body weight as well as corresponding lung weight rescue"}, {"measurement": "gross lung pathology and inflammation (images of whole lungs)", "setting": "SARS-CoV-2; PA treated groups vs mock treated", "value": "much of the pathology reduced"}, {"measurement": "histopathology analysis and scoring of lung sections", "setting": "SARS-CoV-2; PA treatment groups", "value": "decreased pathology"}, {"measurement": "virion structural integrity by TEM compared to untreated control", "setting": "PR8 WT virus particles", "value": "severe disruption of viral envelope"}, {"measurement": "effect on virus entry (VP1 western blot)", "setting": "Coxsackie virus B3; incubation of virus with drug 1 hr prior to infection", "value": "did not have any effects"}, {"measurement": "effect on virus entry (VP1 western blot)", "setting": "Coxsackie virus B3; pre-treatment 3 hr with 2 mM PA, 10 MOI", "value": "did not have any effects"}, {"measurement": "effect on virus entry (VP1 western blot)", "setting": "Coxsackie virus B3; treatment at the time of infection (T0)", "value": "did not have any effects"}, {"measurement": "infectious virus in supernatants (plaque assay)", "setting": "CVB3", "value": "did not imply any differences"}, {"measurement": "effect on virus entry (VP6 positive cells, IFA)", "setting": "Rota virus RRV strain", "value": "did not have any effects"}, {"measurement": "decrease in GFP positive cells", "setting": "AAV6-GFP particles", "value": "5-10%"}, {"measurement": "GFP positive cells, treated vs untreated", "setting": "[3]", "value": "Almost no differences"}, {"measurement": "non-toxic concentration (OD600)", "setting": "M. smegmatis cells", "value": 1, "unit": "mM"}, {"measurement": "protection from TM4 mycobacteriophage induced cell death", "setting": "TM4 mycobacteriophage; 1 mM PA added 3 hr prior to infection", "value": "no protection"}, {"measurement": "protection from TM4 mycobacteriophage induced cell death", "setting": "TM4 mycobacteriophage; 1 mM PA added at the start of experiment", "value": "no protection"}]}
